In ChEMBL document CHEMBL1157539, “Thousands of chemical starting points for antimalarial lead identification” (Nature, 2010):

Each compound was assayed on Plasmodium falciparum (assay: GSK_TCMDC: Inhibition of Plasmodium falciparum 3D7 in whole erythrocytes, using parasite LDH activity as an index of growth.). Conditions: Plasmodium falciparum, 3D7.
Type: functional, organism-based

| SMILES | XC50 [nM] |
| --- | --- |
| Cc1cc(NC(=O)c2ccco2)ccc1OC1CCN(Cc2ccccc2)CC1 | 531 |
| Cc1nc2ccc(-c3nc4cc(N)ccc4[nH]3)cc2[nH]1 | 233 |
| O=C(N[C@@H](Cc1ccccc1)[C@H](O)CNCCC(F)(F)F)c1cccc(OCC2CC2)c1 | 616 |
| COc1ccc(CCNc2ccnc3cc(Cl)ccc23)cc1OC | 891 |
| CC(C)Nc1nc(NCCc2c[nH]cn2)nc(NCc2ccc(Cl)c(Cl)c2)n1 | 962 |
| O=C(CCCCCNC(=O)c1ccc(O)c(-c2ccc(Cl)c(Cl)c2)c1)NCCN1CCOCC1 | 830 |
| CCOC(=O)CCCN1C(=O)CN=C(c2ccccc2)c2cc(Cl)ccc21 | 778 |
| Cc1c(CCc2cccc(F)c2F)[nH]c2ccccc2c1=O | 822 |
| Nc1nc(N)c2c(ccc3c2ccn3Cc2ccc(OCc3ccccc3)cc2)n1 | 933 |
| O=C(Nc1ccc(Cl)c(Cl)c1)N[C@H]1CCN(CCCCCNC(=O)C2CC2c2ccc(Cl)c(Cl)c2)C1 (stereo partly drawn) | 1030 |
| CC1(C)N=C(N)N=C(N)N1c1cc(Cl)c(Cl)cc1Cl | 181 |
| CN(C)CCNC(=O)c1cccc(-c2cnc3ccc(NCc4ccc(Cl)c(Cl)c4)nn23)c1 | 698 |
| CC(C)CCN1CCC(Oc2ccc(NC(=O)c3ccco3)cc2Cl)CC1 | 676 |
| CCOC(=O)c1nc(-c2ccccc2)[nH]c1NC(=S)NC1CCCCC1 | 836 |
| CCN1CCN(c2cc(C)c3cc(NC(=O)c4ccc(N(CC)CC)cc4)ccc3n2)CC1 | 962 |
| Cc1cccn2c(=O)c3cc(C(=O)NC(C)c4ccccc4)c(=N)n(CCN4CCOCC4)c3nc12 (stereo not drawn) | 823 |
| COc1cc(C)ccc1S(=O)(=O)N1CCCCC(c2ccc(C(F)(F)F)cc2)=N1 | 775 |
| O=C(Nc1cccc(C(F)(F)F)c1)NC1CCN(c2ccnc3ccccc23)CC1 | 988 |
| Cc1ccccc1N1CCN(c2ccc(C(=O)Nc3ccccc3)cc2)CC1 | 723 |
| CCOc1ccc(C(=O)Nc2cc(Br)c3c(c2)CNCC3)cc1Cl | 1040 |
| O=C(NC1CC1)c1cnc(N2CCC(COc3cccc(F)c3)CC2)c(Cl)c1 | 1200 |
| COc1ccc(-c2ccc(CNC(=O)c3cccc(C#N)c3)c(F)c2)cc1CN1CCCN(C)CC1 | 804 |
| O=C(c1ccc(Cl)cc1)C1CCN(CCCOc2ccc3c(c2)CCNCC3)CC1 | 1150 |
| Cc1cccc2nc(-c3ccc(-c4ccc(NC(=O)C(C)CN5CCN(C)CC5)cc4)s3)[nH]c12 (stereo not drawn) | 731 |
| CCCCCCCCCCS(=O)(=O)N[C@H](COCc1cccc(Oc2ccccc2)c1)COP(=O)(O)OC | 1020 |

| SMILES | XC50 [nM] |
| --- | --- |
| CN1CC[C@@H](Oc2cc(C(=O)NCc3ccc(Cl)c(Cl)c3)ccc2C(F)(F)F)C1 | 1250 |
| Cc1noc(C)c1CN1CCCN(c2ccc3c(c2)CCN(Cc2ccc(-c4ncc[nH]4)cc2)CC3)CC1 | 864 |
| CC(=O)Nc1ccc(C(=O)NC2CCN(c3ccnc4cc(Cl)ccc34)CC2)cc1 | 357 |
| Cn1cnc2c(SCc3ccc(OCc4ccccc4)cc3)ncnc21 | 557 |
| COc1ccc(Nc2nccc(-c3ccc4c(-c5ccsc5)cnc(N)c4c3)n2)cc1 | 236 |
| CCOC(=O)C1=C(C)NC2=C(C(=O)C(C(=O)OC)C(C)C2)C1c1cc(Br)c(OCC)c(OC)c1 (stereo not drawn) | 701 |
| COc1ccc2nccc(CCC3(O)CCC(NCc4cc5c(cc4F)SCC(=O)N5)CC3)c2c1 (stereo not drawn) | 675 |
| COc1ccccc1C1CCN(C2CCC(NC(=O)c3ccc4[nH]c(-c5ccc(C)cc5)nc4c3)CC2)CC1 (stereo not drawn) | 308 |
| CC(C)Nc1nc(NCCc2c[nH]cn2)nc(Nc2ccc(Oc3ccccc3)cc2)n1 | 887 |
| Cc1nc2ccc3ccc(CNc4ccc(C(=O)N[C@@H](CCC(=O)O)C(=O)N[C@@H](Cc5cccs5)C(=O)O)c(F)c4)cc3c2c(=O)[nH]1 | 787 |
| O=C(c1ccc(-c2ccc(Cl)cc2)o1)N1CCc2cc3nccc(N4CCN5CCC[C@H]5C4)c3cc21 | 170 |
| COc1cc2ccccc2c(OC)c1CNCCCCCCNCc1c(OC)cc2ccccc2c1OC | 988 |
| CC(C)CC(C)NC(=O)C1Cc2c([nH]c3cc(Cl)ccc23)C2(CCN(CCc3ccccc3)CC2)N1 (stereo not drawn) | 815 |
| CCCCCCN(CCCCCC)CC(O)c1cc(-c2ccc(Cl)cc2)nc2c(C)cc(C)cc12 (stereo not drawn) | 67.3 |
| CC(C)COc1cc(C(=O)Nc2cnc3ccccc3c2)ccc1[N+](=O)[O-] | 776 |
| O=C(Nc1cccc(C(F)(F)F)c1)c1ccc(S(=O)(=O)NC2CCN(CC3CCCCC3)CC2)cc1 | 1160 |
| CC(C)(CC1CCCCC1)NC(=O)[C@H](CC1CCCCC1)Nc1ccc(C#N)c2ccccc12 | 592 |
| O=C(Nc1ccc2c(c1)CCC2)c1nc(N2CCN(c3ccncc3)CC2)ccc1Cl | 1380 |
| N=C(N)NN=Cc1c2ccccc2c(Cl)c2ccc(Cl)cc12 | 225 |
| CN(c1ccc2c(c1)nc(NCc1ccccc1)n2C)c1ccnc(Nc2ccc(CS(C)(=O)=O)cc2)n1 | 841 |
| COc1ccc(NC(=O)/C=C/c2ccccc2Cl)cc1OCCN1CCC(Cc2cc3ccccc3[nH]2)CC1 | 903 |
| N#CCCN1CCN(Cc2ccc(-c3ccc(-c4nc5cc(F)ccc5[nH]4)s3)cc2)CC1 | 659 |
| Cc1nc(C)c(-c2ccc(Oc3ccc(OC(F)(F)F)cc3)cc2)c(OC(=O)c2ccccc2)c1Cl | 182 |
| CC(C)c1ccc(NC(=O)c2ccc(C(=O)NC3CCN(Cc4ccsc4)C3)cc2)cc1 (stereo not drawn) | 1030 |
| COc1ccccc1C1CCN(C2CCC(NC(=O)/C=C/c3cccc(Cl)c3)CC2)CC1 (stereo not drawn) | 1030 |

| SMILES | XC50 [nM] |
| --- | --- |
| Cc1ccc2c(Cc3cnc(N)nc3N)cc(C)c(N)c2n1 | 1420 |
| O=C(Nc1ccc(-c2nc3ccccc3[nH]2)cc1)c1ccc(Cl)c([N+](=O)[O-])c1 | 802 |
| COc1ccc(C2CCN(CCN3CCC(NC(=O)c4cccc(-c5ccncc5)c4)CC3)CC2)c(OC)c1 | 797 |
| Cc1ccn2c(N(Cc3ccccc3)C(=O)c3ccc(Cl)c(Cl)c3)c(-c3ccccc3)nc2c1 | 987 |
| CCOC(=O)NC1=NC(=N)N(OCc2ccc(Cl)c(Cl)c2)C(C)(C)N1 | 40.7 |
| Cc1ccc2[nH]c(-c3cc(-c4cccc(CCN5CCOCC5)c4)cnc3N)nc2c1 | 170 |
| COc1cccc(C2(c3cccc(OC)c3)N=C(N)N(CCCc3ccccc3)C2=O)c1 | 260 |
| C=CCNC(CCCCC)c1ccc(OCCOc2ccc(C(CCCCC)NCC=C)cc2)cc1 (stereo not drawn) | 567 |
| CCN(CC)CCCC(C)N=c1cc(C=Cc2ccccc2Cl)[nH]c2cc(Cl)ccc12 (stereo not drawn) | 805 |
| C#CCNCc1ccc(-c2cccc(-c3nc4cccc(C)c4[nH]3)c2)cc1 | 818 |
| Cc1cccc2nc(-c3ccc(-c4ccc(CN5CCN(C6CCN(C)CC6)CC5)cc4)cc3)[nH]c12 | 100 |
| CNCCc1c(O)ccc2ccccc12 | 804 |
| Cc1c[nH]c(-c2cccc(C(=O)NC3CCC(CCN4CCc5ccc(C#N)cc5CC4)CC3)c2)n1 (stereo not drawn) | 301 |
| COc1ccc(C2CC(=O)C3=C(C2)NC(C)=C(C(=O)OC2CCCC2)C3c2cccc(O)c2)cc1OC (stereo not drawn) | 216 |
| CCOc1ccc2nc(NC(=O)c3csnn3)sc2c1 | 476 |
| COc1cc2nc(N3CCC(CNC(=O)c4ccc(-c5ccc(-c6noc(C)n6)cc5)cc4)CC3)nc(N)c2cc1OC | 139 |
| Cc1ncccc1-c1cccc2c(NC(=O)Nc3ccc4nccc(N5CCN(C)CC5)c4c3)cccc12 | 632 |
| O=C(Cc1cccc(O)c1)NCC(Cc1ccc(O)cc1)c1ccccc1 (stereo not drawn) | 643 |
| O=C(NCCNc1ccnc(Nc2ccc(F)cc2)n1)c1cc2ccccc2s1 | 755 |
| Cc1c(C(=O)C2CC2CN2CCC(N3CCCC3)CC2)sc2ccccc12 (stereo not drawn) | 1400 |
| N#Cc1cncc(-c2nc3c(N4CCC(N5CCCC5)CC4)cccc3n2CCNCc2ccccc2)c1 | 874 |
| O=C(Nc1ccc(N2CCNCC2)nc1)c1oc(-c2ccccc2)nc1C(F)(F)F | 981 |
| COc1cc(C(=O)NC2CC(C)(C)N(C)C(C)(C)C2)ccc1-c1cc2cc(Cl)c(Cl)cc2[nH]1 | 1140 |
| N#Cc1ccccc1Sc1ccccc1C(=O)Nc1ccc2ccccc2n1 | 507 |
| CN1CC[C@@H](Oc2cc(NC(=O)Nc3ccc(Cl)c(C(F)(F)F)c3)ccc2Cl)C1 | 994 |

| SMILES | XC50 [nM] |
| --- | --- |
| CN(C)c1ccc(C=CC(=O)NC(=O)c2ccccc2O)cc1 | 227 |
| Cc1cc(N[C@@H](Cc2ccccc2)C(=O)NCCOc2ccccc2)nc(NCCc2cccs2)n1 | 997 |
| COc1ccc(-n2cc(C(=O)c3cc(Br)ccc3O)cc(C#N)c2=O)cc1Cl | 791 |
| CC[C@H]1CN2CC[C@@H]1C[C@H]2[C@H](O)c1cc(N2CCOCC2)nc2ccc(OC)cc12 | 118 |
| O=C1CCCN1CCCNCc1cccc(-c2ccc(-c3nc4cc(C(F)(F)F)ccc4[nH]3)cc2)c1 | 300 |
| Cn1c(/C=C/C(=O)NC2CCC(CCN3CCc4ccc(C#N)cc4CC3)CC2)cc2ccccc21 (stereo not drawn) | 733 |
| CN(C)CCCOc1cccc(CCNCc2cccc(Oc3ccc(Cl)cc3)c2)c1 | 1010 |
| CCNC(=O)Nc1ccc(-c2ccc(-c3nc4cccc(C)c4[nH]3)s2)cc1 | 1070 |
| COc1ccc2nccc([C@@H](O)CN3CCC(NCc4[nH]c5ccccc5c4F)CC3)c2c1 | 247 |
| O=C(Nc1ccc2c(c1)OCO2)NC1CCN(c2ccnc(NCc3ccc(F)cc3)n2)CC1 | 943 |
| CCN(CCCN1CCCCC1)c1cc(C)nc(Nc2cc(Cl)ccc2C)n1 | 633 |
| O=C(Nc1cccc(-c2cccc(-c3nc4ccccc4[nH]3)c2)c1)c1csnn1 | 921 |
| O=C(/C=C/c1ccc(Cl)c(Cl)c1)NCCCCCN1CCC(NC(=O)NC2CCCCC2)CC1 | 557 |
| CCNc1cc(C(=O)N[C@@H](Cc2ccccc2)[C@H](O)CNC2CCC(C)(C)CC2)cc(N2CCCCS2(=O)=O)c1 | 647 |
| COc1cc2nccc(Nc3ccc(OCc4ccccc4)cc3)c2cc1OC | 203 |
| CN(C)CCCNCc1ccc(-c2ccc(C(F)(F)F)cc2)cc1 | 873 |
| O=C(Nc1cccc(-c2ccc(-c3nc4cc(F)ccc4[nH]3)cc2)c1)c1ccncc1 | 278 |
| COc1ccc(-n2nc(C)c3c2NC(=O)CC3c2ccccc2OCc2ccc(F)cc2)cc1 (stereo not drawn) | 855 |
| Cc1nc(-c2ccc(-c3ccc(C(=O)Nc4ccc(I)c(OCCN5CCCC5)c4)cc3)c(C)c2)no1 | 964 |
| COc1cc(OCCCCCCON2C(=N)N=C(N)NC2(C)C)cc(OC)c1OC | 3.2 |
| O=c1[nH]ccc2nc(N[C@@H]3CCNC3)nc(Nc3ccc4c(c3)S(=O)(=O)CC4)c12 | 377 |
| CCCCCC1c2[nH]c3ccccc3c2CCN1C(=O)OCc1ccccc1 (stereo not drawn) | 389 |
| Cc1cc(F)ccc1Nc1nc(N(C)c2ccccc2)c2cc(OCCN(C)C)ccc2n1 | 786 |
